Source: paper PMC4556614 (PLoS ONE, 2015)

Columns and labels:
OCT2 [1] = target: T1, OCT2 (Homo sapiens, UniProt O15244); assay: in vitro; conditions: human, pH 7.3
Description: (§1) For the transport assays HEK cell lines stably transfected with human OCT2 (HEK-OCT2) or the vector only (HEK-VC) were used. The HEK-OCT2 cell line was established and characterized previously. HEK-OCT2 and HEK-VC cells were seeded in poly-D-lysine (Sigma Aldrich, Taufkirchen, Germany) coated 48-well-plates at a density of 1.2 x 10^5 cells/well. […] Uptake was stopped by washing the cells three times with ice-cold uptake buffer. Afterwards, cells were lysed with 5 mM Tris buffer (pH 7.3) containing 0.1% Triton X-100. The intracellular accumulation of radioactivity was determined by liquid scintillation counting (PerkinElmer, Rodgau-Jügesheim, Germany) and protein concentration of each lysate was measured with bicinchonic acid assay (BCA Protein Assay Kit, Thermo Fisher Scientific, Waltham, MA, USA). We performed two to eight experiments each on at least two separate days, i.e., n = 4–16.
Experimental half-maximal inhibitory concentrations (IC50 values) were measured as the substrate uptake in the presence of increasing concentrations of test drugs. These experiments were performed as described above (three experiments each on two separate days, i.e., n = 6). IC50 values were calculated with GraphPad Prism 5.0 (GraphPad Software, San Diego, CA, USA). IC50 was estimated by a sigmoidal inhibition model and was fit to the equation V = V 0 / (1 + (I / IC50 ) ^n ) by nonlinear regression. V is the net uptake in the presence of the inhibitor, V 0 is the net uptake in the absence of the inhibitor, I is the concentration of the inhibitor and n is the slope.

OCT2 [2] = target: T1, OCT2; assay: Inhibition of OCT2-mediated [3H]MPP+ uptake in HEK-OCT2 cells
Description: as §1

[3] = test drug 20 µM, MPP+ 50 μM, 3 min, net uptake HEK-OCT2 minus HEK-VC
[4] = test drug 200 µM, MPP+ 50 μM, 3 min, net uptake HEK-OCT2 minus HEK-VC

T1 sequence (O15244 whole entry): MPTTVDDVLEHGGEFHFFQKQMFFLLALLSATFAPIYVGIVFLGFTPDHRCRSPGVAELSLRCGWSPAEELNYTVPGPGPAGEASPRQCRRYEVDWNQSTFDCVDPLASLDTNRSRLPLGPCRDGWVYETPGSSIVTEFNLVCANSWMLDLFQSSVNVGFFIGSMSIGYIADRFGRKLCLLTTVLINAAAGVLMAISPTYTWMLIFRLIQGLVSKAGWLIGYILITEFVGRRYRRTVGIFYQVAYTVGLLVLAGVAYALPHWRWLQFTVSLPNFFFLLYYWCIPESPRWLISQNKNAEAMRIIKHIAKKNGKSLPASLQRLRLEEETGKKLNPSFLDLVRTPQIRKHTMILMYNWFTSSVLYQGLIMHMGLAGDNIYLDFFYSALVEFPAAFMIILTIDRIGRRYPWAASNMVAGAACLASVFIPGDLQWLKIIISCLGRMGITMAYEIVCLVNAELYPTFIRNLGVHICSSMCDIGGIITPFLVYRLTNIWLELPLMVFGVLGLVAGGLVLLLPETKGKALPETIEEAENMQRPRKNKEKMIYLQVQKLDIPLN

CNCCC(Oc1ccc(C(F)(F)F)cc1)c1ccccc1 (centres unmarked) [Fluoxetine] was tested, and the “% Inhibition of OCT2-dependent MF uptake at 20 µM (mean ± SEM)” value (OCT2 [1]) was 79.0 ± 0.9, the “% Inhibition of OCT2-dependent MF uptake at 200 µM (mean ± SEM)” value (OCT2 [1]) was 98.5 ± 1.2 and the “% Inhibition of OCT2-dependent MPP+ uptake at 20 µM (mean ± SEM)” value (OCT2 [2]; [3]) was 20.2 ± 3.5%. The “% Inhibition of OCT2-dependent MPP+ uptake at 200 µM (mean ± SEM)” value (OCT2 [2]; [4]) was 91.8 ± 2.9%.

In the case of OCCN1CCN(CCCN2c3ccccc3Sc3ccc(C(F)(F)F)cc32)CC1 [Fluphenazine], the “% Inhibition of OCT2-dependent MF uptake at 200 µM (mean ± SEM)” value (OCT2 [1]) is reported as 99.3 ± 0.4, the “% Inhibition of OCT2-dependent MPP+ uptake at 20 µM (mean ± SEM)” value (OCT2 [2]; [3]) is reported as 39.3 ± 7.0% and the “% Inhibition of OCT2-dependent MPP+ uptake at 200 µM (mean ± SEM)” value (OCT2 [2]; [4]) is reported as 94.3 ± 3.3%.

In the case of CC(C)n1c(/C=C/C(O)CC(O)CC(=O)O)c(-c2ccc(F)cc2)c2ccccc21 (centres unmarked) [Fluvastatin], the “% Inhibition of OCT2-dependent MF uptake at 20 µM (mean ± SEM)” value (OCT2 [1]) is reported as -21.1 ± 10.3, the “% Inhibition of OCT2-dependent MF uptake at 200 µM (mean ± SEM)” value (OCT2 [1]) is reported as 32.5 ± 8.1 and the “% Inhibition of OCT2-dependent MPP+ uptake at 20 µM (mean ± SEM)” value (OCT2 [2]; [3]) is reported as -10.1 ± 6.1%. For the same compound, the “% Inhibition of OCT2-dependent MPP+ uptake at 200 µM (mean ± SEM)” value (OCT2 [2]; [4]) was 5.8 ± 9.1%.

With NCC1(CC(=O)O)CCCCC1 [Gabapentin] the “% Inhibition of OCT2-dependent MF uptake at 20 µM (mean ± SEM)” value (OCT2 [1]) was 9.1 ± 8.2, the “% Inhibition of OCT2-dependent MF uptake at 200 µM (mean ± SEM)” value (OCT2 [1]) was 37.6 ± 4.2 and the “% Inhibition of OCT2-dependent MPP+ uptake at 20 µM (mean ± SEM)” value (OCT2 [2]; human, pH 7.3) was -8.4 ± 9.6. The “% Inhibition of OCT2-dependent MPP+ uptake at 200 µM (mean ± SEM)” value (OCT2 [2]; human, pH 7.3) was -12.5 ± 9.4.

COc1ccc2c3c1O[C@H]1C[C@@H](O)C=C[C@@]31CCN(C)C2 [Galantamine] was tested, and the “% Inhibition of OCT2-dependent MF uptake at 20 µM (mean ± SEM)” value (OCT2 [1]) was 51.5 ± 2.8, the “% Inhibition of OCT2-dependent MF uptake at 200 µM (mean ± SEM)” value (OCT2 [1]) was 92.5 ± 1.2 and the “% Inhibition of OCT2-dependent MPP+ uptake at 20 µM (mean ± SEM)” value (OCT2 [2]; [3]) was -11.7 ± 9.4%. For the same compound, the “% Inhibition of OCT2-dependent MPP+ uptake at 200 µM (mean ± SEM)” value (OCT2 [2]; [4]) was 12.3 ± 7.0%.

COc1ccc(Cl)cc1C(=O)NCCc1ccc(S(=O)(=O)NC(=O)NC2CCCCC2)cc1 [Glibenclamide] was tested, and the “% Inhibition of OCT2-dependent MF uptake at 20 µM (mean ± SEM)” value (OCT2 [1]) was 38.7 ± 11.9, the “% Inhibition of OCT2-dependent MF uptake at 200 µM (mean ± SEM)” value (OCT2 [1]) was 87.9 ± 3.2 and the “% Inhibition of OCT2-dependent MPP+ uptake at 20 µM (mean ± SEM)” value (OCT2 [2]; [3]) was -27.7 ± 5.0%. For the same compound, the “% Inhibition of OCT2-dependent MPP+ uptake at 200 µM (mean ± SEM)” value (OCT2 [2]; [4]) was -31.1 ± 1.7%.

With CCC1=C(C)CN(C(=O)NCCc2ccc(S(=O)(=O)NC(=O)N[C@H]3CC[C@H](C)CC3)cc2)C1=O [Glimepiride] the “% Inhibition of OCT2-dependent MF uptake at 20 µM (mean ± SEM)” value (OCT2 [1]) was 66.8 ± 2.9, the “% Inhibition of OCT2-dependent MF uptake at 200 µM (mean ± SEM)” value (OCT2 [1]) was 65.6 ± 4.6 and the “% Inhibition of OCT2-dependent MPP+ uptake at 20 µM (mean ± SEM)” value (OCT2 [2]; [3]) was 31.1 ± 7.6%. For the same compound, the “% Inhibition of OCT2-dependent MPP+ uptake at 200 µM (mean ± SEM)” value (OCT2 [2]; [4]) was 53.8 ± 15.2%.

O=C(CCCN1CCC(O)(c2ccc(Cl)cc2)CC1)c1ccc(F)cc1 [Haloperidol] was tested, and the “% Inhibition of OCT2-dependent MF uptake at 20 µM (mean ± SEM)” value (OCT2 [1]) was 6.4 ± 8.9, the “% Inhibition of OCT2-dependent MF uptake at 200 µM (mean ± SEM)” value (OCT2 [1]) was 66.9 ± 5.3 and the “% Inhibition of OCT2-dependent MPP+ uptake at 20 µM (mean ± SEM)” value (OCT2 [2]; [3]) was -11.2 ± 5.0%. For the same compound, the “% Inhibition of OCT2-dependent MPP+ uptake at 200 µM (mean ± SEM)” value (OCT2 [2]; [4]) was -10.6 ± 5.1%.

In the case of NS(=O)(=O)c1cc2c(cc1Cl)NCNS2(=O)=O [Hydrochlorothiazide], the “% Inhibition of OCT2-dependent MF uptake at 20 µM (mean ± SEM)” value (OCT2 [1]) is reported as -34.7 ± 16.9, the “% Inhibition of OCT2-dependent MF uptake at 200 µM (mean ± SEM)” value (OCT2 [1]) is reported as -38.6 ± 8.5 and the “% Inhibition of OCT2-dependent MPP+ uptake at 20 µM (mean ± SEM)” value (OCT2 [2]; [3]) is reported as -55.4 ± 10.2%. The “% Inhibition of OCT2-dependent MPP+ uptake at 200 µM (mean ± SEM)” value (OCT2 [2]; [4]) was -36.6 ± 7.4%.

CC(C)Cc1ccc(C(C)C(=O)O)cc1 (centres unmarked) [Ibuprofen] was tested, and the “% Inhibition of OCT2-dependent MF uptake at 20 µM (mean ± SEM)” value (OCT2 [1]) was 23.4 ± 6.7, the “% Inhibition of OCT2-dependent MF uptake at 200 µM (mean ± SEM)” value (OCT2 [1]) was 29.6 ± 4.1 and the “% Inhibition of OCT2-dependent MPP+ uptake at 20 µM (mean ± SEM)” value (OCT2 [2]; [3]) was -5.8 ± 8.0%. The “% Inhibition of OCT2-dependent MPP+ uptake at 200 µM (mean ± SEM)” value (OCT2 [2]; [4]) was -0.3 ± 7.5%.

CCCCC1=NC2(CCCC2)C(=O)N1Cc1ccc(-c2ccccc2-c2nnn[nH]2)cc1 [Irbesartan] was tested, and the “% Inhibition of OCT2-dependent MF uptake at 20 µM (mean ± SEM)” value (OCT2 [1]) was -16.2 ± 14.4, the “% Inhibition of OCT2-dependent MF uptake at 200 µM (mean ± SEM)” value (OCT2 [1]) was -14.2 ± 17.8 and the “% Inhibition of OCT2-dependent MPP+ uptake at 20 µM (mean ± SEM)” value (OCT2 [2]; [3]) was -18.9 ± 12.4%. For the same compound, the “% Inhibition of OCT2-dependent MPP+ uptake at 200 µM (mean ± SEM)” value (OCT2 [2]; [4]) was -50.7 ± 14.1%.

In the case of O=[N+]([O-])O[C@H]1CO[C@H]2[C@@H]1OC[C@H]2O[N+](=O)[O-] [Isosorbide dinitrate], the inhibition at 3 min, 20 µM (OCT2 [1]) is reported as -19.5 ± 6.9%, the inhibition at 3 min, 200 µM (OCT2 [1]) is reported as 21.7 ± 4.4% and the inhibition at 3 min, 20 µM (OCT2 [2]; human, pH 7.3) is reported as -20.4 ± 5%. The inhibition at 3 min, 200 µM (OCT2 [2]; human, pH 7.3) was -82.4 ± 8%.
